Test results taken from patent publication US10988523B2, “Modified lipidated Relaxin B chain peptides and their therapeutic use” (Sanofi, priority 2018, dated 2021).
*1 amine or outer side, *2 acyl side, *3 side chain or, on linkers, in order; H or OH if unused. Where a SMILES comes first, the peptide text is derived from it. Side-chain parts run from the residue outwards. [ ]: non-standard residue; d: D form. The star is where a group is joined. γGlu = O=C(O)[C@H](CCC(=O)[*:2])N[*:1]; Pentadecanoyl = CCCCCCCCCCCCCCC(=O)*; Palmitoyl = CCCCCCCCCCCCCCCC(=O)*; Myristoyl = CCCCCCCCCCCCCC(=O)*; αMeK = C[C@](N)(CCCCN)C(=O)O; Nle = CCCC[C@H](N)C(=O)O; AEEA = NCCOCCOCC(=O)O; Aib = CC(C)(N)C(=O)O

Target: T1, RXFP1 (Homo sapiens, UniProt Q9HBX9)
T1 construct: OVCAR5 cells expressing endogenous RXFP1; endogenous in cells; host or cells: OVCAR5 cells
T1 sequence (Q9HBX9 1-757): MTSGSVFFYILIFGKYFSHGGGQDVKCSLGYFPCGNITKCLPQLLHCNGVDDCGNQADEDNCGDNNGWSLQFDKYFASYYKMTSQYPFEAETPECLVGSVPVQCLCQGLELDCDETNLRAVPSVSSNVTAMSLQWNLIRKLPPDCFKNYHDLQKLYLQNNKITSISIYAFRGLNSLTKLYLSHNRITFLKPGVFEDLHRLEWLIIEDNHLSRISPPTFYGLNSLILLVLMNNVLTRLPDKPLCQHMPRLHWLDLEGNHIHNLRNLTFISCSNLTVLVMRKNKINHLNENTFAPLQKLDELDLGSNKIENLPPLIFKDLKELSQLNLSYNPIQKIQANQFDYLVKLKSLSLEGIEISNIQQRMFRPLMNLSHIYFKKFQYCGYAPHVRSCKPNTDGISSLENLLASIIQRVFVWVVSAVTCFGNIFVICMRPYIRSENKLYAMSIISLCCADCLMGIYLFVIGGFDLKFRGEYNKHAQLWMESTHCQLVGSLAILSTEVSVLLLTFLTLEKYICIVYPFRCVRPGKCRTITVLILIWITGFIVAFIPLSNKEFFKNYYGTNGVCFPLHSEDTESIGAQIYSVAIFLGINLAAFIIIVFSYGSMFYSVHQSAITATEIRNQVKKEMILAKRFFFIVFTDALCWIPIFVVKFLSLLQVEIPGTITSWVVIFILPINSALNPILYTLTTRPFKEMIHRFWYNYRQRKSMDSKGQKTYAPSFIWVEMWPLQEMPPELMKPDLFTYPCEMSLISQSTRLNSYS
Experiment: OVCAR5 cAMP assay (HTRF), RXFP1 agonist activity
Assay type: cell-based
Conditions: for Emax: OVCAR-5, maximal cAMP relative to H2-relaxin maximum (100%), read-out: EMax, OVCAR 5 cells (cAMP); for EC50: OVCAR5 cells, cAMP HTRF, read-out: EC50 (nM), OVCAR 5 cells (cAMP)
Text: OVCAR5 cells expressing endogenous RXFP1 were used to test RXP1 agonist properties of peptides of the invention, and in particular of the peptides of sequence SEQ ID NO: 1-193.
Since RXFP1 is a Gs coupled GPCR, cAMP was used as readout of RXFP1 activation.
Isobutyl Methyl Xanthine (IBMX) was used to inhibit phosphodiesterase activity facilitating cAMP measurements. HTRF (Homogenous Time Resolved Fluorescence) technology was used to detect cAMP due to its great sensitivity.
In summary, OVCAR5 were grown in regular medium (RPMI) containing 10% fetal calf serum (FCS) and 1% antibiotics (penicillin/streptomycin).
Before the experiments, cells were detached with accutase and incubated for 40 minutes at 37° C. with 1 mM (3-isobutyl-1-methylxanthine) IBMX.
Cells were then distributed in 384 black well plates containing increasing concentrations of the different peptides in a fix volume of medium (without FCS).
After an incubation of 30 min at 37° C. in an humid incubator in 5% CO2, the reaction was stopped by adding a fixed volume of a solution containing a lysis buffer and cAMP-D2 (cAMP labeled with the dye d2) and the anti cAMP antibody linked to Europium and used for cAMP detection.
Readout of the experiment were performed on a fluorimeter allowing HTRF measurement. Activation curves were generated by plotting the intracellular value of cAMP versus log 10 of the compound concentration.
The 50% activation concentration (EC50) was calculated by nonlinear regression using the sigmoidal dose-response (variable slope) equation with Prism 5 software.
Emax % is determined as the maximal intracellular value of cAMP for test compound (upper limit of cAMP vs concentration curve) divided by the maximal intracellular value of cAMP for H2-relaxin determined in the same test occasion multiplied by 100. Emax %=100×[cAMPtest cpd]/[cAMPH2-RlX]

Row | Emax | EC50 | SMILES
1 | 105% |  | CCCCCCCCCCCCCCCC(=O)N[C@@H](CCC(=O)N[C@@H](CCC(=O)NCCCC[C@H](NC(=O)[C@H](CCCNC(=N)N)NC(=O)C(C)(C)NC(=O)[C@H](CO)NC(=O)[C@H](Cc1c[nH]c2ccccc12)NC(=O)[C@@H](NC(=O)[C@H](CO)NC(=O)[C@H](CCSC)NC(=O)CNC(=O)[C@H](CCC(=O)O)NC(=O)C(C)(C)NC(=O)C(C)(C)NC(=O)[C@@H](NC(=O)[C@H](CCC(N)=O)NC(=O)[C@H](C)NC(=O)[C@H](CCCNC(=N)N)NC(=O)[C@@H](NC(=O)[C@H](CCCCN)NC(=O)[C@H](CCC(=O)O)NC(=O)[C@H](CCCNC(=N)N)NC(=O)CNC(=O)[C@H](CCC(=O)O)NC(=O)[C@H](CC(C)C)NC(C)=O)C(C)C)[C@@H](C)CC)[C@@H](C)O)C(N)=O)C(=O)O)C(=O)O [compound 5] (Ac-LEGREKVRAQI[Aib][Aib]EGMSTWS[Aib]RK([γGlu-γGlu-Palmitoyl])-NH2)
2 | 100% | 0.18 nM | CCCCCCCCCCCCCCC(=O)N[C@@H](CCC(=O)N[C@@H](CCC(=O)NCCCC[C@H](NC(=O)CC[C@H](NC(=O)CC[C@H](NC(=O)COCCOCCNC(=O)COCCOCCNC(=O)COCCOCCNC(=O)COCCOCCNC(=O)[C@H](CCCCNC(C)=O)NC(=O)[C@H](C)NC(=O)[C@H](CCCNC(=N)N)NC(=O)[C@](C)(CCCCN)NC(=O)[C@H](CO)NC(=O)[C@H](Cc1ccccc1)NC(=O)[C@@H](NC(=O)[C@H](CO)NC(=O)[C@H](CCC(N)=O)NC(=O)CNC(=O)[C@H](CCC(=O)O)NC(=O)C(C)(C)NC(=O)C(C)(C)NC(=O)[C@@H](NC(=O)[C@H](CCCCNC(C)=O)NC(=O)[C@H](C)NC(=O)[C@H](CCCNC(=N)N)NC(=O)[C@@H](NC(=O)[C@H](CCCCN)NC(=O)[C@H](CCC(=O)O)NC(=O)[C@H](CCCNC(=N)N)NC(=O)CNC(=O)[C@H](CCC(=O)O)NC(=O)[C@H](CC(C)C)NC(C)=O)C(C)C)[C@@H](C)CC)[C@@H](C)O)C(=O)O)C(=O)O)C(N)=O)C(=O)O)C(=O)O [compound 186] (Ac-LEGREKVRAK(Ac)I[Aib][Aib]EGQSTFS[αMeK]RAK(Ac)[AEEA][AEEA][AEEA][AEEA][γGlu][γGlu]K([γGlu-γGlu-Pentadecanoyl])-NH2)
3 | 81% | 0.2 nM | CCCCCCCCCCCCCCCC(=O)N[C@@H](CCC(=O)N[C@@H](CCC(=O)N[C@@H](CCC(=O)NCCOCCOCC(=O)NCCOCCOCC(=O)NCCOCCOCC(=O)NCCOCCOCC(=O)NCCCC[C@H](NC(=O)[C@H](CCCCNC(C)=O)NC(=O)[C@H](CCCCN)NC(=O)[C@H](CCCNC(=N)N)NC(=O)C(C)(C)NC(=O)[C@H](CO)NC(=O)[C@H](Cc1c[nH]c2ccccc12)NC(=O)[C@@H](NC(=O)[C@H](CO)NC(=O)[C@H](CCCC)NC(=O)CNC(=O)[C@H](CCC(=O)O)NC(=O)C(C)(C)NC(=O)C(C)(C)NC(=O)[C@@H](NC(=O)[C@H](CCCCNC(C)=O)NC(=O)[C@H](C)NC(=O)[C@H](CCCNC(=N)N)NC(=O)[C@@H](NC(=O)[C@H](CCCCN)NC(=O)[C@H](CCC(=O)O)NC(=O)[C@H](CCCNC(=N)N)NC(=O)CNC(=O)[C@H](CCC(=O)O)NC(=O)[C@H](CC(C)C)NC(C)=O)C(C)C)[C@@H](C)CC)[C@@H](C)O)C(N)=O)C(=O)O)C(=O)O)C(=O)O [compound 64] (Ac-LEGREKVRAK(Ac)I[Aib][Aib]EG[Nle]STWS[Aib]RKK(Ac)K([AEEA-AEEA-AEEA-AEEA-γGlu-γGlu-γGlu-Palmitoyl])-NH2)
4 | 93% |  | CCCCCCCCCCCCCC(=O)N[C@@H](CCC(=O)N[C@@H](CCC(=O)N[C@@H](CCC(=O)N[C@@H](CCC(=O)NCCCC[C@H](NC(=O)COCCOCCNC(=O)COCCOCCNC(=O)COCCOCCNC(=O)COCCOCCNC(=O)[C@H](CCCCNC(C)=O)NC(=O)[C@H](C)NC(=O)[C@H](CCCNC(=N)N)NC(=O)[C@](C)(CCCCN)NC(=O)[C@H](CO)NC(=O)[C@H](Cc1ccccc1)NC(=O)[C@@H](NC(=O)[C@H](CO)NC(=O)[C@H](CCC(N)=O)NC(=O)CNC(=O)[C@H](CCC(=O)O)NC(=O)C(C)(C)NC(=O)C(C)(C)NC(=O)[C@@H](NC(=O)[C@H](CCCCNC(C)=O)NC(=O)[C@H](C)NC(=O)[C@H](CCCNC(=N)N)NC(=O)[C@@H](NC(=O)[C@H](CCCCN)NC(=O)[C@H](CCC(=O)O)NC(=O)[C@H](CCCNC(=N)N)NC(=O)CNC(=O)[C@H](CCC(=O)O)NC(=O)[C@H](CC(C)C)NC(C)=O)C(C)C)[C@@H](C)CC)[C@@H](C)O)C(N)=O)C(=O)O)C(=O)O)C(=O)O)C(=O)O [compound 190] (Ac-LEGREKVRAK(Ac)I[Aib][Aib]EGQSTFS[αMeK]RAK(Ac)[AEEA][AEEA][AEEA][AEEA]K([γGlu-γGlu-γGlu-γGlu-Myristoyl])-NH2)
